Source: article PMC9060753, “pDobz/pDobb protected diaminodiacid as a novel building block for peptide disulfide-bond mimic synthesis” (RSC Advances, 2019)
Bridge positions count the residues as written; N and C are the ends. Square brackets hold non-standard residues; d marks the D form. Triazole bridges read from a SMILES are 1,4-linked. Peptide text beside a SMILES is read from it. Dap(N3) = [N-]=[N+]=NC[C@H](N)C(=O)O; Pra = C#CC[C@H](N)C(=O)O

Experiments:
[1] = pH 7.4
[2] = target: α-chymotrypsin (Bos taurus, UniProt P00766); details: pH 7.4

NCCCC[C@@H]1NC(=O)[C@@H](Cc2c[nH]c3ccccc23)NC(=O)[C@@H]2CCCN2C(=O)[C@@H](NC(=O)[C@H](CC(=O)O)NC(=O)CN)Cn2cc(nn2)C[C@@H](C(N)=O)NC(=O)[C@H](Cc2c[nH]c3ccccc23)NC(=O)[C@@H]2CCCN2C1=O [Compound 14, [Ala1(&^1),Ala7(&^2)]contryphan-Vn[1,9][(&^1-1,4-[1,2,3]-triazolyl-&^2)]] (H-GD[Dap(N3)]P[dW]KPW[Pra]-NH2; triazole 3-9)
Reduction stability in aqueous DTT solution (percent residual peptide) [1]: remained intact
Difference of protease stability versus native model peptide contryphan-Vn [2]: No significant differences
Protease stability under α-chymotrypsin treatment (percent residual peptide) [2]: degraded completely

NCCCC[C@@H]1NC(=O)[C@@H](Cc2c[nH]c3ccccc23)NC(=O)[C@@H]2CCCN2C(=O)[C@@H](NC(=O)[C@H](CC(=O)O)NC(=O)CN)CSSC[C@@H](C(N)=O)NC(=O)[C@H](Cc2c[nH]c3ccccc23)NC(=O)[C@@H]2CCCN2C1=O [contryphan-Vn, Contryphan-Vn[1,9], reference compound] (H-GDCP[dW]KPWC-NH2; disulfide 3-9)
Reduction stability in aqueous DTT solution (percent residual peptide) [1]: completely reduced
Protease stability under α-chymotrypsin treatment (percent residual peptide) [2]: degraded completely
